{"source": "patent US9981043B2", "about": "“Analgesic conjugates” (priority 2013, dated 2018)", "type_in_all_cases": "in vivo", "key": {"mice": {"tested_on": "mice", "assay": "Rota-Rod motor performance, CFA injected mice", "conditions": "i.t., after the 48 hour measurement post CFA", "description": "To first evaluate the effects of CFA injection on motor coordination, a group of 10 animals were tested on the Rotamex (Columbus Instruments Rotamex 4/8 instrument) for performance. Animals were trained three days prior to undergoing 3-5 minute trials on an accelerating rotating rod (0-20 RPMs). Motor performance was evaluated at 2, 4, 6, 24 and 48 hours post injection. Compound 4c was then injected i.t. and the motor performance was evaluated at 5 and 20 minutes. The time to the first fall were recorded and compared with controls (Kovacs K J, et al., Pain, 2008, 136, 75-84). The results for compound 4c are illustrated in FIG. 10."}, "[1]": {"tested_on": "C3H mice with bone cancer", "assay": "von Frey mechanical hyperalgesia, bone cancer (fibrosarcoma) mice", "description": "The mouse hind paw model of bone cancer was the third model of pain (Wacnik P W, et al., Pain Research & Management, 2000, 16, 615-637; and Wacnik P W, et al., J Neurosci, 2001, 21(23), 9355-9366). Cell Culture: National Collection of Type Cultures (NCTC) clone 2472 fibrosarcoma cells, originally derived from a connective tissue tumor in a C3H mouse, were obtained from the American Type Cell Culture Collection (Rockville, Md.). Cells were grown and maintained in accordance with standard cell culturing techniques. NCTC cells were grown to 80-90% confluence in 75 cm^2 flasks (Corning, Lowell, Mass.) in Dulbecco's Modification of Eagles Medium (Invitrogen, Carlsbad, Calif.) fortified with 10% Horse Serum and sodium bicarbonate. Cell cultures were housed in a water-jacketed incubator with 5% carbon dioxide at 37° C.\nCells were prepared for implantation by first pouring off the culture medium and washing with phosphate-buffered saline (PBS). Trypsin was added to flask and placed in incubator for 3 minutes. Upon detachment, cells were suspended in an ample amount of culture medium to terminate enzymatic activity and centrifuged for 10 min at 1000 g. Fibrosarcoma cells were re-suspended in a known amount of PBS for counting, quantified on a hemacytometer, pelleted and re-suspended in PBS. Fibrosarcoma cells were again re-suspended to a final concentration of 2×10^5 cells in 20 μl. Initially, animals were anesthetized in a plexi-glass chamber using 3% isoflurane in 3 L/min oxygen. Once each mouse was completely anesthetized, a maintenance rate of 2% isoflurane in 1.5 L/min oxygen was maintained during the short implantation procedure. Tumor cells were manually injected by boring into the calcaneus bone using a 29½ gauge needle connected to a sterile 0.3 ml insulin syringe as previously described (19). Following injection, mice were allowed to recover in cages on a heating pad. Animals showing any signs of dysfunction (e.g. problems with ambulation, lethargy or excessive bleeding) or distress where euthanized according to CO2 guidelines.\nC3H mice were was placed under a clean glass cup on a wire mesh grid and allowed to acclimate for thirty minutes. Mechanical hypersensitivity was tested using a von Frey filament #3.61 (which produces a force of […]) to the plantar surface of both the left and right hind paw with enough force to cause it to bow slightly. Starting with the right hind paw, the number of positive responses out of a total of 10 applications was recorded followed by the left hind paw. Positive response was indicated by a sharp withdrawal or flinching behavior of the paw. Baseline von Frey measurements were obtained prior to treatment with CFA, tumor and saline controls. […] Subsequent measurements were taken at various time points after intrathecal (i.t.) injection of test compounds on days 3, 7, 10, 14, 17, and 21. % MPE was calculated ((Time-point value−Day# baseline)/(Day 0 baseline−day# baseline))*100 (Smeester B A, Al-Gizawiy M, & Beitz A J (2012) Evidence-Based Complementary and Alternative Medicine 2012:16). Animals with saline injection served as controls for tumor cell implantation and tumor-induced nociception. Behavioral assessments were conducted during the light cycle at approximately the same time each day. The investigator performing the von Frey testing was blinded to the animal and compound injected.\nA well-established rodent hind paw model of bone cancer pain (Wacnik P W, et al., J Neurosci. 2001, 21(23), 9355-66) was to examine the effects of representative bivalent ligands on tumor-induced nociception. The inbred C3H/He line is syngeneic to the fibrosarcoma cells used in these experiments and allows these cells to grow tumors without rejection. Male C3H mice were used for all experiments. Animals were maintained on a 12 hour light/dark cycle with food and water ad libitum.\nCells were prepared for implantation by first pouring off the culture medium and washing with phosphate-buffered saline (PBS). […]"}, "LPS pretreated mice": {"tested_on": "LPS pretreated mice", "assay": "Radiant tail flick antinociception, LPS pretreated mice", "description": "Compounds were dissolved in 10% DMSO and then diluted to less than 1% DMSO in the test solutions. […] Compounds were administered in a 5-μl volume in conscious mice, either i.c.v. (Haley T J & McCormick W G, Br J Pharmacol Chemother, 1957, 12(1), 12-15) or i.t. (Hylden J L K & Wilcox G L, Eur. J. Pharmacol., 1980, 67(2-3), 313-316). Peak times were determined by comparing the percent maximal possible effect (% MPE) at 5, 10, 20 and 60 minutes after injection.\nThe first group mice were pretreated with lipopolysaccaride (LPS, 1 mg/kg, i.p. from Escherichia coli 0111:B4; Sigma-Aldrich, St. Louis, Mo.) for 24 hours before testing for antinociception of compounds 2-6 (Seo Y-J, et al., Pharmacol., Biochem. Behav., 2008, 91, 121-127). This group was compared to a group without pretreatment.\nThe tail flick assay is used first to test for antinociception as described by D'Amour and Smith (D'AMOUR FE & SMITH DL (1941) J. Pharmacol. Exp. Ther. 72(1):74-79) and modified by Dewey et al. (Dewey W L, Harris L S, Howes J F, & Nuite JA (1970) J. Pharmacol. Exp. Ther. 175(2):435-442). For the measurement of the tail-flick latency, mice are wrapped in a light cloth and held gently in one hand with the tail positioned in the apparatus (Tail Flick Analgesia Meter, Columbus Instruments, Columbus, Ohio) for radiant heat stimulus. The tail-flick response is elicited by applying radiant heat to the dorsal side of the tail. The intensity of the heat is set so that the mouse flicks its tail within 2 to 3 seconds. The test latency is measured before drug treatment (control) and again after the drug treatment (test) at the peak time of the compound; a 10 second maximum cut-off time is used to prevent damage to the tail. Antinociception is quantified according to the Harris L S & Pierson A K, J. Pharmacol. Exp. Ther., 1964, 143(2):141-148, as the percent maximal possible effect (% MPE), which is calculated as: % MPE=(Test−Control/10−Control)×100.\nAt least three groups of four to ten mice are used for each dose response curve. ED50 values with 95% confidence intervals (C.I.) are computed with GraphPad Prism 4 by using nonlinear regression methods."}}, "note": "Values joined by “and” are separate entries in the source; they are usually repeats but may differ in a detail not shown here. Identical values can stand only once. “Also recorded” adds a separate entry of the source."}
{"smiles": "Cc1cccc(C#Cc2cccc(OCCNC(=O)COCC(=O)NCCCCCNC(=O)COCC(=O)N[C@H]3CC[C@@]4(O)C5Cc6ccc(O)c7c6[C@@]4(CCN5C)[C@H]3O7)c2)n1", "note": "[Compound 4c, N-((4aS,7S,7aR,12bS)-4a,9-dihydroxy-3-methyl-2,3,4,4a,5,6,7,7a-octahydro-1H-4,12-methanobenzofuro[3,2-e]isoquinolin-7-yl)-2-((1-(3-((6-methylpyridin-2-yl)ethynyl)phenoxy)-4,8,16-trioxo-6-oxa-3,9,15-triazaheptadecan-17-yl)oxy)acetamide]", "values": [{"measurement": "time on the Rotamex (time to first fall)", "setting": "mice", "result": "stayed on the Rotomex for a longer period of time"}, {"measurement": "Tolerance", "setting": "[1]; bone cancer mice, i.t.", "result": "without tolerance; also recorded: absence of tolerance"}, {"measurement": "duration of significant antinociception", "setting": "[1]; bone cancer, PID 21, 1 nmol i.t.", "result": 12, "unit": "h"}, {"measurement": "duration of antinociception", "setting": "[1]; bone cancer, PID 21, single 10 nmol i.t.", "result": "24 h and > 24 h"}, {"measurement": "ED50 i.t.", "setting": "[1]; bone cancer, day 21, i.t.", "result": 0.01, "unit": "fmol/mouse"}, {"measurement": "antinociception in tumor-bearing mice", "setting": "[1]; bone cancer, i.t., beginning on PID 3", "result": "potent antinociception"}, {"measurement": "ED50 (CI) i.c.v.", "setting": "LPS pretreated mice; LPS pretreated (1 mg/kg 24 hours i.p.), i.c.v.", "result": 374.9, "unit": "pmol/mouse"}, {"measurement": "ED50 (CI) i.t.", "setting": "LPS pretreated mice; LPS pretreated (1 mg/kg 24 hours i.p.), i.t.", "result": "< 9 fmol/mouse and 9 fmol/mouse and 8.83 fmol/mouse"}, {"measurement": "antinociception", "setting": "LPS pretreated mice; LPS pretreated, tail flick, dose of the acute tolerance test", "result": 97, "unit": "%"}]}
